Experimental findings from patent publication US10125105B2, “Triazabutadienes as cleavable cross-linkers” (ARIZONA BOARD OF REGENTS ON BEHALF OF THE UNIVERSITY OF …, priority 2014, dated 2018) are described below.

A short description of data set [1]: Stability in D2O / water in the dark by NMR. Type of data set: physicochemical. The protocol:
(§1) For decomposition experiments, buffers were made to the appropriate pH in a 9:1 mix of H2O:D2O. These solutions were added to the compound being assayed such that the buffer capacity was at least 10 fold the concentration of the compound. Some experiments used 5 mg compound in 0.5 mL of buffer. These were immediately inserted into an NMR instrument and scans were taken at even time intervals to calculate the half-life of the compound based on integration.
To render the triazabutadiene water-soluble, methyl imidazole was alkylated with propane sultone to provide the Zwitterionic NHC precursor Compound 5a (see FIG. 6E). […] Compound 6a was highly colored, so its pH dependence was studied using UV/Vis. The reactions were not only pH-, but also scan-frequency dependent. […] Even in the dark it was unstable, but not in the diazonium-forming way. Both Compound 6b and a more hindered mesityl (Mes) substituted Compound 6c (see FIG. 6E) were synthesized to stabilize what was initially considered to be a rearrangement pathway that could be blocked by steric repulsion. […] It is not yet clear that the hypothesis of a simple rearrangement was correct. […]
As mentioned above, Compound 6c was reasonably stable in pure D20. […] The decomposition to diazonium salts and Compound 7 was measured as a function of pH in phosphate/citrate buffers from pH 4-7 and in a phosphate buffer from pH 6-8. […]

A short description of data set [2]: pH-dependent decomposition to diazonium salts in buffers by NMR. The format is physicochemical. Conditions: phosphate/citrate buffers pH 4-7, phosphate buffer pH 6-8. The protocol:
as §1
As mentioned above, Compound 6c was reasonably stable in pure D20. Upon adjusting the pH to 5 with HCl, a rapid initial consumption of Compound 6c to Compound 7 (see FIG. 6E) and a benzenediazonium salt was noted. After this initial burst of reactivity, a slowing and apparent arresting of the reaction was noted. At this pH the hydronium was the limiting reagent. All future reactions were run in buffers with a buffer capacity sufficient to maintain a large excess of hydronium ions. The experiments were performed in 90:10 H2O:D2O buffered solutions to minimize considerations of pH vs. pD. The decomposition to diazonium salts and Compound 7 was measured as a function of pH in phosphate/citrate buffers from pH 4-7 and in a phosphate buffer from pH 6-8. All runs provided linear correlations of concentration and time, indicating a pseudo-zero order reaction (first order with respect to hydronium ion with a large excess of hydronium ions). […]

As to `Cc1cc(C)c(-n2ccn(CCCS(=O)(=O)[O-])c2=NN=Nc2ccccc2)c(C)c1.[K+]` [Compound 6c, Potassium 3-(3-mesityl-2-(phenyltriaz-2-en-1-ylidene)-2,3-dihydro-1H-imidazol-1-yl) propane-1-sulfonate], in data set [1] (D2O, in the dark, room temperature, NMR), the “compound consumed after 24 hours” value is listed as “less than 10%”. Moreover, in data set [1] (non-buffered 90:10 H2O:D2O solution), the “compound consumed after 6 hours” value was over 7%. The “centre of sigmoidal correlation between decomposition rate and buffer pH” value in data set [2] amounted to 6 pH.
